Assay [1] has as its system HBCx-17 TNBC PDX. As to the kind of experiment: PDX efficacy study. In kind it is in vivo, mice. The protocol: (§1) Immunocompromised SCID (C.B-17/IcrHan®Hsd-Prkdc^scid) or Hsd:Athymic Nude-Foxn1^nu female mice (Envigo) were used for tumour implantation. […] When dosed twice daily, the time between the morning and evening doses was 8 h. Targeted irradiation of 2 Gy was delivered over 2 min daily over the first 5 days of treatment. Liposomal doxorubicin (Doxoves) was diluted in physiological saline and intravenously dosed at 2.5 or 5 mg kg^−1 once per week. Olaparib was formulated in 10% DMSO/30% Kleptose and orally dosed at 100 mg kg^−1 once daily. […] Statistical significance was evaluated using a one-tailed t-test. All in vivo studies complied with all relevant ethical regulations for animal testing and research, followed AstraZeneca’s global bioethics policy and received ethical approval from the AstraZeneca ethical committee. HBCx-17 PDX study was carried out at XenTech, France in accordance with French regulatory legislation concerning the protection of laboratory animals. CTG-703, CTG-0828 and CTG-0149 PDX studies were carried out at Champions Oncology, Inc., USA in accordance to the guidelines of the Institutional Animal Care and Use Committee (IACUC) of Champions Oncology and the USA regulatory legislation. CDX and OV2022 PDX studies were conducted in the UK in accordance with UK Home Office legislation, the Animal Scientific Procedures Act 1986 and the Home Office project licences 70/8839, 70/8894 and P0EC1FFDF. […]
(§2) SCID mice were surgically implanted subcutaneously with tumour fragments from donor mice. Tumours were measured (length x width) by bilateral Vernier calliper measurements and tumour volume calculated using Mousetrap software. Mice were randomized into […]
treatment groups when mean tumour volume reached ~0.2 cm 3.

The subject of assay [2] is FaDu and A549 ATM KO cells. Put plainly: Live/Dead assay, AZD7648 monotherapy, ATM KO versus WT isogenic pairs. In kind it is cell-based, human. The note with it: AZD7648 single agent. An excerpt:
(§3) by Live/Dead assay in A) UWB1.289 and UWB1.289 complemented with wild-type BRCA1 (UWB1.289 + BRCA1), DLD1 and DLD1 with the BRCA2 gene knocked out (DLD1 BRCA2 KO), and B) FaDu and A549 cells with the ATM gene knocked out (ATM KO) compared with their WT counterpart. Graphs represent percentage viable cells ± SD following 7 days’ treatment relative to DMSO vehicle-treated controls from one representative experiment of at least three independent experiments. Tables describe […]
(§4) and A549 ATM KO cells compared with their WT counterparts following 7 days’ treatment.
(§5) Mean pGI50 (–log [GI50]) ± SEM, geometric mean GI50, number of experimental repeats (n) and 95% confidence interval are described. C) Colony formation assay was performed on FaDu and A549 ATM KO and WT cells treated with increasing concentrations of olaparib. Graphs represent percentage surviving fraction of colonies ± SD following 10– 14 days’ treatment relative to DMSO vehicle-treated control from one representative experiment of three independent experiments. […] Mean pIC50
(§6) ± SEM, geometric mean IC50, number of experimental repeats (n) and 95% confidence […]
(§7) 8–14 days or with increasing concentrations of olaparib. Cell colonies were washed with […]
(§8) Mean surviving colonies were calculated from three technical replicates. […]
(§9) before survival fraction was calculated. […]
(§10) and quantified using the Acumen ® Cellista (TTP Labtech). […]

For assay [3], the system named is FaDu ATM KO cells. As to the kind of experiment: Cell proliferation (GI50), Live/Dead assay. In kind it is cell-based. To be noted: Homo sapiens, read-out: GI50 (near 50% of maximal inhibition of cell proliferation).
Source text: as §3, §4, §5, §6, §7, §8, §9, §10

The test system of assay [4] is CTG-0149 H&N PDX. As to the kind of experiment: PDX efficacy study. Type of assay: in vivo, mice. The note with it: AZD7648 single agent. The procedure: as §1, §2
(§11) treatment groups when mean tumour volume reached ~0.2 cm 3. AZD7648 was formulated in 0.5% hydroxypropyl methylcellulose (HPMC)/0.1% Tween80 (HPMC/T) and orally dosed (4–100 mg/kg). When dosed twice daily (bid), the time between the morning and evening doses was 8 hours. Targeted irradiation of 2 Gy was delivered over 2 minutes daily over the first 5 days of treatment. Liposomal doxorubicin (Doxoves) was diluted in physiological saline and intravenously dosed at 2.5 or 5 mg/kg once per week. Olaparib was formulated in 10% DMSO/30% Kleptose and orally dosed at 100 mg/kg once daily.
(§12) HPMC/T. Tumour growth inhibition from start of treatment was assessed by co mparison of the mean change in tumour volume for the control and treated groups, using the Mousetrap application and represented as tumour growth inhibition (TGI). Statistical significance was evaluated using a one-tailed t-test. HBCx-17 PDX study was carried out at XenTech, France in accordance with French regulatory legislation concerning the protection of laboratory animals. CTG-703, CTG-0828 and CTG-0149 PDX studies were carried out at Champions Oncology, Inc., USA in accordance to the guidelines of the Institutional Animal Care and Use Committee (IACUC) of Champions Oncology and the USA regulatory legislation. CDX and OV2022 PDX studies were conducted in the UK in accordance with UK Home Office legislation, the Animal Scientific Procedures Act 1986, and AstraZeneca’s global bioethics policy. Experimental details are outlined in Home […]
(§13) Blood samples were taken via venipuncture of the tail vein. Whole blood was mixed 1: 5 with PBS and centrifuged at 1500g for 3 minutes at 4°C, and the plasma was extracted […]
(§14) was prepared using an appropriate dilution factor and compared against an 11-point standard calibration curve (1–10,000 nM) prepared in DMSO and spiked into bl ank plasma. Acetonitrile (100 µL) was added with the internal standard, followed by centrifugation at 3000 rpm for 10 minutes. Supernatant (50 µL) was then diluted in 300 µL water and analysed with ultra-performance liquid chromatography–tandem mass […]
(§15) Xenograft sample preparation
(§16) Animals were euthanized and tumour samples snap frozen in liquid nitrogen or fixed in formalin and paraffin embedded for subsequent analysis. Tumour pieces were lysed in […]

The subject of assay [5] is CTG-0828 NSCLC PDX. As to the kind of experiment: PDX efficacy study. Type of assay: in vivo, mice. The note with it: AZD7648 single agent. The procedure:
as §1, §2, §11, §12, §13, §14, §15, §16

Assay [6] deals with CTG-703 ovarian PDX. As to the kind of experiment: PDX efficacy study. In kind it is in vivo, mice. The note with it: AZD7648 single agent. The protocol:
as §1, §2, §11, §12, §13, §14, §15, §16

Assay [7] relates to OV2022 ovarian PDX. Put plainly: PDX efficacy study. In kind it is in vivo, mice. The note with it: AZD7648 single agent. The procedure:
as §1, §2, §11, §12, §13, §14, §15, §16

Molecules are shown by their SMILES.

The values below come from publication PMC6838110 (Nature Communications, 2019).

With `Cc1cc2ncnn2cc1Nc1ncc2c(n1)n(C1CCOCC1)c(=O)n2C` [AZD7648], the TGI in assay [1] (AZD7648 75 mg kg−1 bid single agent (olaparib study)) is listed as 65%; in assay [1] (AZD7648 single agent (doxorubicin study)) it was 25%; in assay [4] it was 60–80%; in assay [5] it was “too variable to assess the group effect”; in assay [6], 60–80%; in assay [7], 60–80%. The “greater sensitivity of ATM KO cells compared with isogenic WT cells” value in assay [2] is more than 10 fold. For the same compound, the GI50 in assay [3] was approximately 600 nM.
